Experimental findings from ChEMBL document CHEMBL4184185, “Dihydrobenzisoxazole-4-one compounds are novel selective inhibitors of aldosterone synthase (CYP11B2) with in vivo activity” (Bioorg Med Chem Lett, 2018) are described below.

Data set [1] can be described thus: Inhibition of cynomolgus monkey adrenal mitochondrial CYP11B1 using 11-deoxycortisol as substrate after 90 mins in presence of NADPH by mass spectrometric analysis.
Data set [2] can be described thus: Drug metabolism in human hepatocytes assessed as 3-Amino-2-[2-(4-fluoro-phenyl)-acetyl]-5,5-dimethyl-cyclohex-2-enone metabolite formation at 10 uM after 30 mins by HPLC analysis. The class given is ADME, cell-based, Hepatocyte. Particulars: 0.5 h; call rule not given here.
The nature of data set [3]: Drug metabolism in human hepatocytes assessed as 3-(4-fluorobenzyl)-6,6-dimethyl-4,5,6,7-tetrahydrobenzo[c]isoxazol-4-ol formation at 10 uM after 30 mins by LC-MS/MS analysis. Particulars: 0.5 h. The class given is ADME, cell-based, Hepatocyte.
Data set [4] is described as follows: Drug metabolism in human hepatocytes assessed as 3-Amino-2-[2-(4-fluoro-phenyl)-acetyl]-5,5-dimethyl-cyclohex-2-enone metabolite formation at 10 uM after 30 mins by LC-MS/MS analysis. In kind it is ADME, cell-based, Hepatocyte. Particulars: 0.5 h.
A short description of data set [5]: Drug metabolism in human hepatocytes at 10 uM after 30 mins by LC-MS/MS analysis. The class given is ADME, cell-based, Hepatocyte. Particulars: read-out: Drug metabolism.
The species entered for data set [6] is Macaca fascicularis. Nature of the data set: Selectivity index, ratio of IC50 for cynomolgus monkey adrenal mitochondrial CYP11B1 to IC50 for cynomolgus monkey adrenal mitochondrial CYP11B2.
Data set [7] in a line: Inhibition of cynomolgus monkey adrenal mitochondrial CYP11B2 using corticosterone as substrate after 60 mins in presence of NADPH by mass spectrometric analysis.
A short description of data set [8]: Clearance in human liver microsomes relative to hepatic blood flow. The class given is ADME, microsome. Particulars: read-out: CLH. In general terms: Liver microsomes are vesicles of endoplasmic reticulum, rich in cytochrome P450 enzymes.
A short description of data set [9]: Clearance in human hepatocytes relative to hepatic blood flow. Particulars: read-out: CLH. The class given is ADME, cell-based, Hepatocyte.
The nature of data set [10]: Drug metabolism in human hepatocytes assessed as parent compound remaining at 10 uM after 30 mins by LC-MS/MS analysis. In kind it is ADME, cell-based, Hepatocyte. Particulars: read-out: Stability.
For data set [11], the target named is T1, Aromatase (Homo sapiens, UniProt P11511).
T1 sequence (P11511 whole entry): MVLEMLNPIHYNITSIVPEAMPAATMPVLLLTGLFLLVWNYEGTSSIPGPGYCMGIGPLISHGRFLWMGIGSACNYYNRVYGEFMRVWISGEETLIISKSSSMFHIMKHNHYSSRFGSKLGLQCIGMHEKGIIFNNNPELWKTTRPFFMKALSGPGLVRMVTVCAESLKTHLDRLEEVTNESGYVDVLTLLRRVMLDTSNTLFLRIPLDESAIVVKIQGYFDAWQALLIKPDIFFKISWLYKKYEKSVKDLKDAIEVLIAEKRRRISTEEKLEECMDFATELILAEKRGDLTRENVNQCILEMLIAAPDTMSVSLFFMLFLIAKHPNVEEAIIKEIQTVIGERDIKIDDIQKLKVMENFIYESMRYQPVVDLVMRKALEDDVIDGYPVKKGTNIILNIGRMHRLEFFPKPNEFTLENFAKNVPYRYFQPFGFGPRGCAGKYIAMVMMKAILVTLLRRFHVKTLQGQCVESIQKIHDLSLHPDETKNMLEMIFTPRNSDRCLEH
In words: Inhibition of CYP19A1 (unknown origin).

For data set [12], the system named is Rattus norvegicus. In words: Clearance in iv dosed Wistar Han rat relative to hepatic blood flow. The class given is ADME, organism-based. Particulars: in vivo.
Data set [13] can be described thus: Plasma concentration in ACTH-stimulated cynomolgus monkey at 0.1 mg/kg, iv administered 5 mins before ACTH challenge measured after 3 hrs. The class given is ADME, organism-based, Macaca fascicularis.
Data set [14] deals with Cynomolgus monkey. In words: In vivo inhibition of ACTH-stimulated aldosterone level in cynomolgus monkey assessed as change in plasma aldosterone AUC (0 to 3 hrs) at 1 mg/kg, iv administered 5 mins before ACTH challenge relative to control. The class given is functional, Macaca fascicularis. Also noted: scale not given: the % may be the effect or the level left.
Data set [15] in a line: Unbound plasma concentration in ACTH-stimulated cynomolgus monkey at 8 mg/kg, iv administered 5 mins before ACTH challenge measured at 15 mins post dose. In kind it is ADME, organism-based, Macaca fascicularis. Particulars: in vivo, 0.25 h.
The target in data set [16] is Cytochrome P450 2D6 (Homo sapiens, UniProt P10635). In words: Inhibition of CYP2D6 (unknown origin) at 30 uM. The class given is ADME.
Data set [17] in a line: Unbound plasma concentration in ACTH-stimulated cynomolgus monkey at 0.1 mg/kg, iv administered 5 mins before ACTH challenge measured after 3 hrs. In kind it is ADME, organism-based, Macaca fascicularis. Particulars: in vivo.
Data set [18] deals with Cynomolgus monkey. Nature of the data set: In vivo inhibition of ACTH-stimulated aldosterone level in cynomolgus monkey assessed as change in plasma aldosterone AUC (0 to 3 hrs) at 0.1 mg/kg, iv administered 5 mins before ACTH challenge relative to control. In kind it is functional, Macaca fascicularis. Also noted: scale not given: the % may be the effect or the level left.

Data set [19] can be described thus: Oral bioavailability in Wistar Han rat. In kind it is ADME, organism-based. Particulars: in vivo.
A short description of data set [20]: Unbound plasma concentration in ACTH-stimulated cynomolgus monkey at 0.1 mg/kg, iv administered 5 mins before ACTH challenge measured at 15 mins post dose. The class given is ADME, organism-based, Macaca fascicularis. Particulars: in vivo, 0.25 h.
Data set [21] is described as follows: Plasma concentration in ACTH-stimulated cynomolgus monkey at 0.1 mg/kg, iv administered 5 mins before ACTH challenge measured at 15 mins post dose. In kind it is ADME, organism-based, Macaca fascicularis.
A short description of data set [22]: Clearance in cynomolgus monkey hepatocytes relative to hepatic blood flow. In kind it is ADME, cell-based, Macaca fascicularis, Hepatocyte. Particulars: read-out: CLH.
The test system of data set [23] is Cynomolgus monkey. In words: In vivo inhibition of ACTH-stimulated aldosterone level in cynomolgus monkey assessed as change in plasma aldosterone AUC (0 to 3 hrs) at 8 mg/kg, iv administered 5 mins before ACTH challenge relative to control. The class given is functional, Macaca fascicularis. Also noted: scale not given: the % may be the effect or the level left.

Data set [24] concerns the target T2, Steroid 17-alpha-hydroxylase/17,20 lyase (Homo sapiens, UniProt P05093).
T2 sequence (P05093 whole entry): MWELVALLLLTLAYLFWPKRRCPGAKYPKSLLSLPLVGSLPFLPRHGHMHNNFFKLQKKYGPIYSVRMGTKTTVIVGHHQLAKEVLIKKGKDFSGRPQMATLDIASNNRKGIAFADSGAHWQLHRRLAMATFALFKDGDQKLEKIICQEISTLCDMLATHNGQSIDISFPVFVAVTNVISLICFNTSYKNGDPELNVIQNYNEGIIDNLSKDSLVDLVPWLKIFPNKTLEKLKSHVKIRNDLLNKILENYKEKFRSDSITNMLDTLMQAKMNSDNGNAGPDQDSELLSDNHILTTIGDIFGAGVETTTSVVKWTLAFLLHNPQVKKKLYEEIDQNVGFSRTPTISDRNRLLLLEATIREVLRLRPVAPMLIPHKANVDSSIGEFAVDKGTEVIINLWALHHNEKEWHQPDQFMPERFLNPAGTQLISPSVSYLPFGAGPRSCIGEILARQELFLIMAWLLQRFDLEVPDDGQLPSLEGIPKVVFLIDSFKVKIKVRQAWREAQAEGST
In words: Inhibition of CYP17A1 (unknown origin). In kind it is ADME.

Data set [25] is described as follows: Clearance in Wistar Han rat hepatocytes relative to hepatic blood flow. The class given is ADME, cell-based, Hepatocyte. Particulars: read-out: CLH.
A short description of data set [26]: Oral bioavailability in cynomolgus monkey. Particulars: in vivo. In kind it is ADME, organism-based, Macaca fascicularis.
For data set [27], the target named is Cytochrome P450 2C9 (Homo sapiens, UniProt P11712). In words: Inhibition of CYP2C9 (unknown origin) at 30 uM. In kind it is ADME.
Data set [28] relates to Cynomolgus monkey. In words: Effect on ACTH-stimulated plasma cortisol level in cynomolgus monkey up to 8 mg/kg, iv administered 5 mins before ACTH challenge measured after 3 hrs. In kind it is ADME, organism-based, Macaca fascicularis. Particulars: in vivo.
The target in data set [29] is Cytochrome P450 3A4 (Homo sapiens, UniProt P08684). In words: Inhibition of CYP3A4 (unknown origin) at 30 uM. The class given is ADME.
A short description of data set [30]: Plasma concentration in ACTH-stimulated cynomolgus monkey at 8 mg/kg, iv administered 5 mins before ACTH challenge measured at 15 mins post dose. In kind it is ADME, organism-based, Macaca fascicularis.
Data set [31] is described as follows: Clearance in Beagle dog hepatocytes relative to hepatic blood flow. In kind it is ADME, cell-based, Canis lupus familiaris, Hepatocyte. Particulars: read-out: CLH.
The target in data set [32] is T1, Aromatase. Nature of the data set: Inhibition of CYP19A1 (unknown origin) at 20 uM.
Data set [33] concerns Cynomolgus monkey. Nature of the data set: In vivo inhibition of ACTH-stimulated aldosterone level in iv dosed cynomolgus monkey assessed as change in plasma aldosterone AUC (0 to 3 hrs) administered 5 mins before ACTH challenge. Particulars: Macaca fascicularis. In kind it is functional, organism-based.
Data set [34] has as its system Canis familiaris. Nature of the data set: Clearance in iv dosed Beagle dog relative to hepatic blood flow. In kind it is ADME, organism-based, Canis lupus familiaris. Particulars: in vivo.
In data set [35] the test system is Cynomolgus monkey. Nature of the data set: Clearance in iv dosed cynomolgus monkey relative to hepatic blood flow. Particulars: in vivo. The class given is ADME, organism-based, Macaca fascicularis.
Data set [36] is described as follows: Oral bioavailability in Beagle dog. In kind it is ADME, organism-based, Canis lupus familiaris. Particulars: in vivo.

Cytochrome P450 2D6, sequence (P10635 whole entry): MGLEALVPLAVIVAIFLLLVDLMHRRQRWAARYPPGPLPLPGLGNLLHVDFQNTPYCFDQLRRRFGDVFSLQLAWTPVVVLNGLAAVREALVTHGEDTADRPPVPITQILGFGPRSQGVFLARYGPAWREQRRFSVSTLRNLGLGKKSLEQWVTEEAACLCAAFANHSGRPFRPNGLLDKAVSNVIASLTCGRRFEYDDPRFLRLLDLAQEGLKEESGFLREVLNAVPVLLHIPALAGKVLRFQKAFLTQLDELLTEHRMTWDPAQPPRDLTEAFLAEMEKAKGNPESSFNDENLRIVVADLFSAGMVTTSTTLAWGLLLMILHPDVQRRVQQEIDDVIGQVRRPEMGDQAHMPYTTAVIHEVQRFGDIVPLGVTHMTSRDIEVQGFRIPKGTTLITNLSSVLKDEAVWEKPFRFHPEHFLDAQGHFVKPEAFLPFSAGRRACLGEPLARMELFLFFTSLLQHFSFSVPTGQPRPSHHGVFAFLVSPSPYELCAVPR
Cytochrome P450 3A4, sequence (P08684 whole entry): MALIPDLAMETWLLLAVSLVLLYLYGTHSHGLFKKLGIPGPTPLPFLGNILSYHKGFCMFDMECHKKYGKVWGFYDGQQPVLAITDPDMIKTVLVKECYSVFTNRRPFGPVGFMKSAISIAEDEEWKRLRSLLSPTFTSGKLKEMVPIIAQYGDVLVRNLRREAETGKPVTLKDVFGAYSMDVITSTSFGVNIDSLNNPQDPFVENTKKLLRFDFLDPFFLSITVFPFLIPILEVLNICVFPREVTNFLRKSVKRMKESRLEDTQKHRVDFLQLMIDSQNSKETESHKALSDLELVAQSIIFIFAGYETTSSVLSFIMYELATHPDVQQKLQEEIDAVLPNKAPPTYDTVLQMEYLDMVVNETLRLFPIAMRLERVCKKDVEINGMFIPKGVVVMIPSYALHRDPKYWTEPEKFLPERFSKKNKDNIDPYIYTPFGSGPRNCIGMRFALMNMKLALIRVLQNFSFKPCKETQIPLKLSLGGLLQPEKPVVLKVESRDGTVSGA
Cytochrome P450 2C9, sequence (P11712 whole entry): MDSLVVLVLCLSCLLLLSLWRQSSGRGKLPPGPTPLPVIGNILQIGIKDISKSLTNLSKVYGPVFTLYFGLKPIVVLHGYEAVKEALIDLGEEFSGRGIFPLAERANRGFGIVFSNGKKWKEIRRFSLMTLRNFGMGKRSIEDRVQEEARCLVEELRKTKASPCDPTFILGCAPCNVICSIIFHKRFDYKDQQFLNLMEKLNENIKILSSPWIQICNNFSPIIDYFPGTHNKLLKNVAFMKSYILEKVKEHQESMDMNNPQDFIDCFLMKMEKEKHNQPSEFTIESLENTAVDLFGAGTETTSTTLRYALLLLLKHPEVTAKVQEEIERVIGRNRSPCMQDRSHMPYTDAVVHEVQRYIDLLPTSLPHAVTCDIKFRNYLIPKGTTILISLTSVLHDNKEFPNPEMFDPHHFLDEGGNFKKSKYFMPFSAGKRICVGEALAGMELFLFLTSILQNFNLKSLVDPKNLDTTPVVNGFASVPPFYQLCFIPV

`CC1(C)CC(=O)c2c(noc2Cc2ccc(F)cc2)C1`: the negative-log IC50 (pIC50) (in general, the IC50 on a negative log10 scale, so that one unit is a factor of ten) in data set [1] amounted to 4.7; in data set [7], 6.8. For the same molecule, the Drug metabolism result in data set [2], in [3] and in [4] was “Metabolite_Detected” each time. Moreover, the metabolised at 0.5 h, 10 µM in [5] was 72%. In addition, the Ratio IC50 in data set [6] was found to be 130. Further, the figures for the hepatic extraction ratio in [8] and in data set [9] were < 0.24 and 0.91, respectively. The remaining at 0.5 h, 10 µM in data set [10] was determined as 28%.

As to `CN(CCO)C(=O)c1ccc(Cc2onc3c2C(=O)CC(C)(C)C3)cc1`, the pIC50 in [1] came to 5; in data set [7], 7. Also, the half-inhibitory concentration (IC50) (as a rule, the concentration that gives 50% inhibition) in data set [11] is > 31.6 µM; in data set [24] it was > 31.6 µM; in data set [7] it was 92 nM. The figures for the CL in data set [12], in data set [34] and in data set [35] were 24%, 9.7% and 32%, respectively. The molecule further gave a concentration at 3 h in [13] of 78 nM. In addition, the Activity in data set [14] is given as -87.9%; in data set [18], -62.4%; in data set [23] it was -92.3%; in [28], “Non-Toxic”. In addition, the “Cp(f)” value in data set [15] stood at 5.7 µM; in data set [17] it was 46 nM; in data set [20], 93 nM. The “inhibition (INH)” value in [16], in data set [27], in data set [29] and in [32] was “Not Active” in each case. Also, the bioavailability (usually the share of a dose that reaches the circulation, judged against a reference dose that is usually intravenous) in data set [19] worked out at 14%; in [26], 91%; in data set [36], 91%. The concentration at 0.25 h came out at 160 nM in data set [21] and 9.6 µM in data set [30]. The hepatic extraction ratio in data set [22] was 0.34; in data set [25], 0.52; in [31], < 0.3; in data set [8], < 0.24; in data set [9], < 0.21. In addition, the Ratio IC50 in data set [6] was determined as 100. Further, in data set [33], the inhibition result was “Dose-dependent effect”.
